ChEMBL document CHEMBL1201862, “PubChem BioAssay data set” (2004)
Active and inactive are the calls of the source.

What was measured:
[1] = IC50 of Artemis nuclease activity blockers – biochemical, fluorescence intensity, dose response (AID 720701); assay type: functional;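 further: Artemis endonuclease enzyme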
Paired box protein Pax-8 = Paired box protein Pax-8 (Homo sapiens, UniProt Q06710); test: PAX8 transcriptional activity inhibition in RMG-I – RMG-I cells, luciferase, cherry-pick, dose response (AID 687027); assay type: functional, cell-based;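 further: luciferase reporter driven by Pax8 target thyroperoxidase promoter measured by SteadyGlo luminescence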
[2] = PAX5 cellular inhibition readout – cell-based, plate reader, dry powder samples, selectivity assay for PAX8 inhibitor project, dose response (AID 743047); assay type: functional;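 further: HEK293 cells carrying a Pax5 driven CD19 promoter luciferase reporter; potency of inhibitors that lower reporter luminescence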
[3] = inhibitors acting on PAX2 in cells – cell-based, plate reader, dry powder samples, selectivity assay for PAX8 inhibitor project, dose response (AID 743048); assay type: functional;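 further: HEK293 cells carrying a WT1 promoter luciferase reporter driven by expressed Pax2; potency is for inhibition of Pax2 driven reporter signal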
[4] = OV-90 cell viability loss – plate reader, dry powder, SA8, PAX8 inhibitor project, dose response (AID 743149); assay type: functional, cell-based
[5] = PAX8-dependent cell viability loss – plate reader, dry powder, dose response (AID 743049); assay type: functional, cell-based
[6] = viability of uninfected HEp-2 cells – cell-based, HTS, cytotoxicity control for RSV inhibitor project, dose response (AID 2410); assay type: functional; settings: human respiratory syncytial virus
Cytochrome P450 3A4 = Cytochrome P450 3A4 (Homo sapiens, UniProt P08684);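 further: CYP3A4 tested as one member of a cytochrome P450 panel screen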
[7] = A Cell-Based Confirmatory Screen for Compounds that Inhibit VEEV, TC-83 (2).; assay type: functional
Vero [8] = test: cells; assay type: functional, cell-based; settings: Chlorocebus sabaeus
Cytochrome P450 1A2 = molecular target: T1, Cytochrome P450 1A2 (Homo sapiens, UniProt P05177);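 further: PubChem cytochrome P450 panel assay, CYP1A2 panel member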
T1 sequence (P05177 whole entry): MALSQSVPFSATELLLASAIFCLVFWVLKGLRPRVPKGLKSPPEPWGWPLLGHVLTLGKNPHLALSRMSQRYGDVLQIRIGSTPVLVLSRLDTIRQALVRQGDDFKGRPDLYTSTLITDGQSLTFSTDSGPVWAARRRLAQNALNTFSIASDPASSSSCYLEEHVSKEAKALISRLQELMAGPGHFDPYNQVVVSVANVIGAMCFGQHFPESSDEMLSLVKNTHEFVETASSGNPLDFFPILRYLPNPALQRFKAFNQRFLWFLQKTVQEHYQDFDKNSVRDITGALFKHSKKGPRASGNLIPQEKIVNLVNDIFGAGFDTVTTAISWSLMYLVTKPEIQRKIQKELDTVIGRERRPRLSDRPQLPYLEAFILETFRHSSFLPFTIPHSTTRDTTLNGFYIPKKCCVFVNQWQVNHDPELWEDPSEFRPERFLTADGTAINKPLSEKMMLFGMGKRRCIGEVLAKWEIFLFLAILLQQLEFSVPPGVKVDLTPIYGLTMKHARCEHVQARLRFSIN

[9] = A Cell-Based Counter Screen testing Compounds that Inhibit VEEV TC-83, in strain KU V3526.; assay type: functional
Vero [10] = test: cells; assay type: functional; settings: Chlorocebus sabaeus
[11] = viability loss in Vero 76 cells – cell-based, set 2, cytotoxicity control, dose response (AID 602240); assay type: functional; settings: Venezuelan equine encephalitis virus
[12] = Late-stage results from the probe development effort to identify antagonists of arginine vasopressin receptor 1a (AVPR1a): fluorescence-based cell-based dose response AVPR1a inhibition assay.; assay type: functional
Vasopressin V2 receptor = Vasopressin V2 receptor (Homo sapiens, UniProt P30518); test: Late-stage results from the probe development effort to identify antagonists of arginine vasopressin receptor 1a (AVPR1a): fluorescence-based cell-based dose response AVPR2 inhibition counterscreen assay.; assay type: functional
[13] = Late-stage results from the probe development effort to identify antagonists of arginine vasopressin receptor 1a (AVPR1a): fluorescence-based cell-based dose response OXTR inhibition counterscreen assay.; assay type: functional
Vasopressin V1b receptor = Vasopressin V1b receptor (Homo sapiens, UniProt P47901); test: Late-stage results from the probe development effort to identify antagonists of arginine vasopressin receptor 1a (AVPR1a): fluorescence-based cell-based dose response AVPR1b inhibition counterscreen assay.; assay type: functional
[14] = Luminescence Cell-Based Dose Response HTS to Identify Inhibitors of 5'UTR Stem-Loop Driven Prion Protein mRNA Translation in H4 Neuroglioblastoma Cells. [Related pubchem assays: 1827 (Project Summary), 1813 (Primary HTS)]; assay type: functional
[15] = rise of 4N DNA cells, HeLa – IC50, dose response (AID 1117351); assay type: functional, cell-based
[16] = luciferase reporter signal suppression in cells – H4 neuroglioma cells, luminescence, dose response (AID 1990); assay type: functional, cell-based
[17] = rise of 2N DNA cells, HeLa – IC50, dose response (AID 1117349); assay type: functional, cell-based
P388 = test: cells; assay type: functional; settings: Mus musculus
P388/ADR = test: cells; assay type: functional; settings: Mus musculus
SN12K1 = test: cells; assay type: functional; settings: Homo sapiens
[18] = molecular target: FAD-linked sulfhydryl oxidase ALR (Homo sapiens, UniProt P55789); test: ALR-catalysed DTT oxidation blockers – biochemical, H2O2 detection, luminescence, cherry-pick, dose response (AID 493248)
[19] = alpha-synuclein stem-loop luciferase translation blockers – H4 neuroglioma cells, luminescence, confirmation (AID 1988); assay type: functional, cell-based
[20] = Dd2 malaria parasite growth inhibition potency – SYBR Green, dry powder samples, dose response (AID 1159566); assay type: functional, cell-based;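 further: potency for growth inhibition with lower SYBR green DNA signal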
[21] = growth inhibition of yeast DHODH-expressing 3D7 parasites – SYBR Green, dry powder samples, dose response (AID 1159570); assay type: functional, cell-based;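 further: parasite growth measured after 72 hours of compound exposure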
[22] = P. falciparum Dd2 growth inhibitors, dose response, SYBR Green, cherry-picked samples (AID 1159567); assay type: functional, cell-based
[23] = Dd2 parasite growth inhibition in erythrocytes – SYBR Green, dry powder samples, set 9, dose response (AID 1159568); assay type: functional, cell-based
[24] = growth inhibition of PfATP4-mutant resistant parasites – NITD609-resistant line, SYBR Green, dry powder, dose response (AID 1159571); assay type: functional, cell-based;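 further: parasites synchronized at ring stage by sorbitol before testing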
[25] = Plasmodium falciparum Dd2 Sybr green parasite growth Measured in Cell-Based and Microorganism Combination System Using Plate Reader - 2153-01_Inhibitor_Dose_DryPowder_Activity_Set3.; assay type: functional
[26] = toxicity to human HepG2 hepatoma cells – cell-based, plate reader, dry powder samples, cytotoxicity control, dose response (AID 1159569); assay type: functional;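 further: inhibitor potency with signal falling toward the positive control level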
[27] = toxicity to human hepatoma HepG2 cells – cell-based, cherry-picked samples, cytotoxicity control, dose response (AID 1159577); assay type: functional

Sequence of FAD-linked sulfhydryl oxidase ALR (P55789 whole entry): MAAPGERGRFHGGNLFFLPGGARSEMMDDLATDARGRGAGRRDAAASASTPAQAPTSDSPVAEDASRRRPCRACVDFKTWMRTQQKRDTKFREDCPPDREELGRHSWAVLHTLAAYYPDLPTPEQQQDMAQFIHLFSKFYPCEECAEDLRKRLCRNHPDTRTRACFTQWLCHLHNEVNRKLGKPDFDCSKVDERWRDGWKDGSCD
Sequence of Paired box protein Pax-8 (Q06710 whole entry): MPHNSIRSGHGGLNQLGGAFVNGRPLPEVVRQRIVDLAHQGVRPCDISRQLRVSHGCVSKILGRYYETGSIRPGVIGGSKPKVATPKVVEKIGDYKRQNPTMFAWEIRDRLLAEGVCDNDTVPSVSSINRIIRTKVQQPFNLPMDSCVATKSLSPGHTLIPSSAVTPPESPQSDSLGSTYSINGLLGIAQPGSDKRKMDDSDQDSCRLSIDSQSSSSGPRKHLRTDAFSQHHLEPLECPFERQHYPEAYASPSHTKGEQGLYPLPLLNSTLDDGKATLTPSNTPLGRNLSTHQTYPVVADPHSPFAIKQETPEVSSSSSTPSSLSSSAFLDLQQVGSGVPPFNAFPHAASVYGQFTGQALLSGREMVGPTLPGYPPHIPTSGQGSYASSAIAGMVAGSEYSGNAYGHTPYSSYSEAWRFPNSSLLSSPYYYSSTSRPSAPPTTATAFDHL
Sequence of Vasopressin V2 receptor (P30518 whole entry): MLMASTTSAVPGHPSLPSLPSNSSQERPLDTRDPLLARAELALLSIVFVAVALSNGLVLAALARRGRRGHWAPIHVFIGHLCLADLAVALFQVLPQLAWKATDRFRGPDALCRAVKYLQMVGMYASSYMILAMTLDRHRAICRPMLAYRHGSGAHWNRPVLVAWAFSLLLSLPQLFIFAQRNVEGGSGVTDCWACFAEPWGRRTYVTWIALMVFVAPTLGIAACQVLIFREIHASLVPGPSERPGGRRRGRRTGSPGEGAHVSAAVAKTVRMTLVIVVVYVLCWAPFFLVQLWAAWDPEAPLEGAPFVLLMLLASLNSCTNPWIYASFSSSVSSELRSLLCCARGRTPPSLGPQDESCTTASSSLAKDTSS
Sequence of Cytochrome P450 3A4 (P08684 whole entry): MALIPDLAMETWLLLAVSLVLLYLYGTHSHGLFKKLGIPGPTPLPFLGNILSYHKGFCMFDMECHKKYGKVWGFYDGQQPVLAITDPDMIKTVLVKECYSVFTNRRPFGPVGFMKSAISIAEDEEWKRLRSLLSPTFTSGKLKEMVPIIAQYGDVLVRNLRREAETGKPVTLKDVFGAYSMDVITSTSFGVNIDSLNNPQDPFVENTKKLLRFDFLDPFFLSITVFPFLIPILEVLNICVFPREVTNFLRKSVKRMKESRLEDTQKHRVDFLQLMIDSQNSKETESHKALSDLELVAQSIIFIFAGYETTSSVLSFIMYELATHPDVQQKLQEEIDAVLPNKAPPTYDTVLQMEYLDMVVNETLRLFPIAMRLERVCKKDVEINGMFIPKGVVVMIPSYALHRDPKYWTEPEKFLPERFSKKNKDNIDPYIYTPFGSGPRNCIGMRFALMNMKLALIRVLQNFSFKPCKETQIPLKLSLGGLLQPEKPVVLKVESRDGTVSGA
Sequence of Vasopressin V1b receptor (P47901 whole entry): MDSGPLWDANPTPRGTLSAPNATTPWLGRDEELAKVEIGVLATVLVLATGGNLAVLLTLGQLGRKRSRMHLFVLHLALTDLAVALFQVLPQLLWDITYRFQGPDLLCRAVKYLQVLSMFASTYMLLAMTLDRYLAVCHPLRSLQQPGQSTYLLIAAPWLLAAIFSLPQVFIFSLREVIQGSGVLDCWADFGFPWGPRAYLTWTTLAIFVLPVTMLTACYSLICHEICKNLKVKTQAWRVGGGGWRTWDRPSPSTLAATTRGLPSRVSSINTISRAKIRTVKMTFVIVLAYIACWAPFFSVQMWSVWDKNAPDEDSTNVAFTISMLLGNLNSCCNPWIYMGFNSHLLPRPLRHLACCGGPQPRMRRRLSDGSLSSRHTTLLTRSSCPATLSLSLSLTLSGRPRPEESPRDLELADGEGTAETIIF

Q: With `COc1ccc(/C=N/NC(=O)c2nc(-c3ccccc3)cc(-c3ccccc3)n2)cc1` as the molecule, how does the IC50 [1] read?
A: Its IC50 is > 20 µM (inactive).

Q: With `N#C[C@@H]1[C@@H](c2ccc(-c3ccccc3F)cc2)[C@@H](CO)N1C(=O)C1CCC1` as the molecule, how does the AC50 (Paired box protein Pax-8) read?
A: The AC50 was 8.88 µM (active).

Q: And the AC50 [2]?
A: Its AC50 is 60.8 µM (active).

Q: What about the AC50 [3] of the same molecule?
A: The AC50 was > 70 µM (inactive).

Q: What about the AC50 [4] of the same molecule?
A: Its AC50 is > 70 µM (inactive).

Q: And the AC50 [5]?
A: The AC50 was > 70 µM (inactive).

Q: Which CC50 [6] does the source give for `CCOC(=O)c1ccc(Nc2nc(=O)c3cccnc3s2)cc1` here?
A: Its CC50 is 22.4 µM (active).

Q: And the AC50 (Cytochrome P450 3A4)?
A: Its AC50 is “inconclusive”.

Q: And the IC50 [7]?
A: Its IC50 is 10.8 µM (active).

Q: And the IC50 (Vero [8])?
A: Its IC50 is 6.32 µM (active).

Q: And the AC50 (Cytochrome P450 1A2)?
A: The AC50 was 14.1 µM (inconclusive).

Q: And the IC50 [9]?
A: Its IC50 is 7.07 µM (active).

Q: And the CC50 (Vero [10])?
A: Its CC50 is > 25 µM (active).

Q: What about the IC50 (cells) of the same molecule?
A: The IC50 was 9.32 µM (active).

Q: What about the CC50 [11] of the same molecule?
A: The CC50 was > 50 µM (active).

Q: For `N#Cc1ccnc(N2CCC(C(=O)N(CC3CC3)c3ccc(Cl)cc3)CC2)c1`, which IC50 [12] is on record?
A: The IC50 was 62.8 nM (active).

Q: What about the IC50 (Vasopressin V2 receptor) of the same molecule?
A: Its IC50 is > 50 µM (inactive).

Q: What about the IC50 [13] of the same molecule?
A: Its IC50 is 4.6 µM (active).

Q: And the IC50 (Vasopressin V1b receptor)?
A: Its IC50 is > 50 µM (inactive).

Q: Which EC50 [14] does the source give for `O=C(O)CCCc1ccc(N(CCCl)CCCl)cc1` [CHLORAMBUCIL] here?
A: Its EC50 is > 120 µM (not active).

Q: What about the IC50 [15] of the same molecule?
A: Its IC50 is > 10 µM (inactive).

Q: And the EC50 [16]?
A: Its EC50 is > 120 µM (not active).

Q: And the IC50 [17]?
A: Its IC50 is > 10 µM (inactive).

Q: What about the GI50 (P388) of the same molecule?
A: The GI50 was 3.73 µM (inactive).

Q: What about the GI50 (P388/ADR) of the same molecule?
A: Its GI50 is 6.25 µM (inactive).

Q: And the GI50 (SN12K1)?
A: The GI50 was 49.5 µM (inactive).

Q: What about the AC50 [18] of the same molecule?
A: Its AC50 is < 5 nM (active).

Q: What about the EC50 [19] of the same molecule?
A: The EC50 was 32.6 µM (active).

Q: What does the source list for `COc1ccc(-c2ccc([C@H]3[C@@H](C#N)N(C(=O)NC(C)C)[C@H]3CO)cc2)cc1`?
A: AC50 [20]: 559 nM (active); AC50 [21]: 3.98 µM (active); AC50 [22]: 890 nM (active); AC50 [23]: 1.2 µM (active); AC50 [24]: 874 nM (active); AC50 [25]: 1.86 µM (active); AC50 [26]: 80.6 µM (active); AC50 [27]: 3.33 µM (active)
